Measured values taken from patent US20240284910A1, “HERBICIDAL COMPOSITIONS” (SYNGENTA CROP PROTECTION AG, priority 2021, published 2024).

What was measured:
Assay type in all cases: in vivo
Details in all cases: sprayed, evaluated after 13 days
[1] = tested on: Amaranthus retroflexus (AMARE); assay: Post-emergence glasshouse phytotoxicity test, AMARE
Description: (§1) Seeds of Chenopodium album (CHEAL), Ipomoea hederacea (IPOHE), Amaranthus retroflexus (AMARE) and Abutilon threophrasti (ABUTH) and Stellaria media (STEME) were sown in standard sterilised soil in pots. After cultivation for 8 days under controlled conditions in a glasshouse (at 24/19° C., day/night; 16 hours light; no humidity control), the plants were sprayed at 500 I/Ha with an aqueous spray solution derived from the formulation of the technical active ingredients in a small amount of acetone and a solvent and emulsifier mixture referred to as IF50 (11.12% Emulsogen EL360 TM+44.44% N-methylpyrrolidone+44.44% Dowanol DPM glycol ether), to create a 50 g/l solution which was then diluted using 0.2% Genapol XO80 (CAS Number: 9043-30-5) as diluent to give the desired final dose of test compound. Where active ingredients were applied as mixtures, aqueous spray solutions were prepared as above, containing both active ingredients. The test plants were then grown under controlled conditions in a glasshouse (at 24/18° C., day/night; 15 hours light; 50% humidity) and watered twice daily. After 13 days, the test was evaluated visually for percentage phytotoxicity to the plants (where 100=total damage to plant; 0=no damage to plant) when compared to control untreated plants. Two to four replicates were applied for each treatment in a randomised block test design.
(§2) 22., E=X+Y−(X*Y/100), where • X=average percent phytotoxicity of herbicide A when applied at a certain rate • Y=average percent phytotoxicity using herbicide B when applied at a certain rate • E=the expected effect of the mixture of herbicides A and B as calculated from the Colby formula.

[2] = tested on: Abutilon threophrasti (ABUTH); assay: Post-emergence glasshouse phytotoxicity test, ABUTH
Description: as §1, with “Where active ingredients were applied as mixtures, aqueous spray solutions were prepared as above, containing both active ingredients. The test plants were then grown under controlled conditions in a glasshouse (at 24/18° C., day/night; 15 hours light; 50% humidity) and watered twice daily.” left out, “Two to four replicates were applied for each treatment in a randomised block test design.” left out
as §2

Stellaria media (STEME) = assay: Post-emergence glasshouse phytotoxicity test, STEME
Description: as §1, §2

[3] = tested on: Ipomoea hederacea (IPOHE); assay: Post-emergence glasshouse phytotoxicity test, IPOHE
Description: as §1, §2

[4] = tested on: Chenopodium album (CHEAL); assay: Post-emergence glasshouse phytotoxicity test, CHEAL
Description: as §1, §2

Row | Compound | Observed (O) percentage phytotoxicity ([1]; rate 6.25 g/ha) | Observed (O) percentage phytotoxicity ([1]; rate 25 g/ha) | Observed (O) percentage phytotoxicity ([2]; rate 12.5 g/ha) | Observed (O) percentage phytotoxicity (Stellaria media (STEME); rate 6.25 g/ha) | Observed (O) percentage phytotoxicity (Stellaria media (STEME); rate 12.5 g/ha, 100=total damage, 0=no damage) | Observed (O) percentage phytotoxicity ([3]; rate 6.25 g/ha) | Observed (O) percentage phytotoxicity ([3]; rate 12.5 g/ha) | Observed (O) percentage phytotoxicity ([4]; rate 6.25 g/ha) | Observed (O) percentage phytotoxicity ([4]; rate 12.5 g/ha) | Observed (O) percentage phytotoxicity ([1]; rate 0.31 g/ha) | Observed (O) percentage phytotoxicity ([2]; rate 0.31 g/ha) | Observed (O) percentage phytotoxicity (Stellaria media (STEME); rate 0.16 g/ha) | Observed (O) percentage phytotoxicity (Stellaria media (STEME); rate 0.31 g/ha) | Observed (O) percentage phytotoxicity ([3]; rate 0.16 g/ha) | Observed (O) percentage phytotoxicity ([4]; rate 0.31 g/ha)
1 | CN1C[C@H](c2cccc(C(F)(F)F)c2)[C@@H](C(=O)Nc2ccccc2F)C1=O [I-A] | 0% | 8% | 10% | 33% | 58% | 25% | 38% | 0% | 28% | – | – | – | – | – | –
2 | Cc1nnc(NC(=O)c2ccc(C(F)(F)F)n3c(CS(=O)(=O)C(C)C)nnc23)o1 [II] | – | – | – | – | – | – | – | – | – | 5% | 34% | 13% | 6% | 4% | 24%
